Measurements: patent US4287035A, “Method for producing rapid pH changes” (priority 1979, dated 1981)
Entries after “also recorded” stand apart in the source; their conditions may differ. Like-named read-outs stand apart in the source and are kept apart here.

Experiments:
[1] = cited from earlier work
[2] = ground state, cited from earlier work
[3] = Comparison of proton transfer time and excited state lifetime; format: physicochemical; details: for proton transfer time: excited state; for ability to produce pH change: on electronic excitation
Description: Consider the situation wherein the proton transfer time for either protonation or deprotonation is longer than the excited state lifetime of the molecules in question. In this situation, it is not possible to achieve an acid-base equilibrium during the excited state lifetime. As a result, some of the photons that could be used to produce protons under acid-base equilibrium conditions are no longer available for this purpose because the excitation produced by them is lost in various decay processes from the excited state (see FIG. 1). It will be apparent therefore, that to maximize the pH change for a particular concentration and radiation fluence, it is highly desirable that the proton transfer time be substantially shorter than the excited state lifetime.
It can, however, be readily determined for any compound of interest by means of time resolved spectroscopy of species in the solution. In the case of an acid reaction of the type shown in reaction (1), these would be the acid AH and the anion A^-. Such spectroscopy permits the concentrations of these species to be ascertained.
The requisite spectroscopic measurements are quite straightforward if (a) the excited states of both AH and A^- fluoresce, (b) the fluorescence from the excited states of AH and A^- is sufficiently spectrally shifted that they can be distinguished from one another, and (c) excited state protonation and deprotonation occur with retention of the electronic excitation. […] In those instances where they are not met it is still possible to obtain the necessary information by means of various techniques well known to those versed in the spectroscopic arts. Thus, for example, lack of fluorescence from the excited states of AH and A^- can be overcome by probing with excited-state absorption spectroscopy rather than emission spectroscopy.

[4] = cited from earlier work; for pK(S0): ground state
[5] = pK values of representative molecules in ground state (S0) and first excited singlet state (S1), Table I; format: physicochemical; details: S0 to S1
Description: As shown by the data of the tables set forth in Ireland et al., the phenomenon is quite general and is characteristic of bases as well as acids. Ireland et al. is hereby incorporated by reference. Values of pK for representative molecules in the ground state (S0) and the first excited singlet state (S1) are given in Table I. Deprotonation results in increased acidity whereas protonation increases the basicity of the solution. […] The change in pK may be quite large.

[6] = Excited state protonation/deprotonation of 2-naphthol-6-sulfonate by picosecond laser/streak camera fluorescence; format: physicochemical
Description: A number of runs were made to obtain measurements from which the rates of excited state protonation and deprotonation kf and kb, respectively, could be determined for the reaction: [formula] […] As long as the solution is not so acidic as to make the protonation reaction fast (pH≤3), the rate of excited state proton transfer is simply determined from the risetime of the anion emission.
Since the fluorescence of 2-naphthol-6-sulfonate (λmax ~360 nm) is considerably shifted from that of its anion (λmax ~430 nm), only the anion emission is recorded when 450±10 nm spectral filter 14 is placed between the sample cell 12 and the slit of streak camera 15. FIG. 4 is a plot of the risetime (10-90%) of the emission from the 2-naphthol-6-sulfonate anion versus the initial pH of the solution. Individual points represent the average of four to six separate streak camera exposures. […] At very high acidities, the protonation rate becomes so rapid that the temporal profile of the excited anion emission follows that of the protonated species.
By measuring the time history of both anionic and acidic species under a variety of experimental conditions and using a kinetic scheme which includes terms for the fluorescence lifetimes and quenching, the complete kinetics of the excited state protonation deprotonation are readily obtained. For 2-naphthol-6-sulfonate, kf =(1.02±0.3)×10^9 sec^-1 and kb =(9.0±3)×10^10 l-mole^-1 -sec^-. The solid line of FIG. 4 is a fit using a kinetic model with kf and kb having these values.

[7] = pH jump (more acidic) by 266 nm irradiation of 2-naphthol-6-sulfonate solution
Description: A single 30 psec pulse 4 at 1064 nm is extracted from the pulse train of mode-locked Nd:YAG laser 1 by means of Blumlein electronic switchout unit 3. The flowing dye 2 serves to mode lock laser 1. A second harmonic of pulse 4 is generated at 532 nm in KDP crystal 5.
Wavelengths other than 532 nm are then removed from pulse 4 by means of spectral filters 6. The 532 nm pulse is reflected from mirror 7 through ADP crystal 8 where it in turn is frequency doubled to produce the fourth harmonic at 266 nm.
Beam splitter 11 directs a portion of the 266 nm pulse to energy meter 20. […] The beam size on sample 12 is ~0.1 mm. […] Appropriate filters 14 are used to isolate various emission bands.
The pH of the solutions was adjusted by addition of reagent grade HCl or NaOH and was measured on a pH meter (Fisher Model 230) accurate to about 0.1 pH unit.

[8] = Excited state protonation of coumarin 102 by time-resolved fluorescence; format: physicochemical
Description: (§1) A proton attaches at the carbonyl site by the reaction [formula] Here Kp is the protonation rate constant and kdp is the deprotonation rate constant.
(§2) Experimental runs utilized laser grade coumarin 102 (Eastman) which was maintained at a concentration of 1.0×10^-3 M in a 1:1 H2 O:ethanol solvent. Deionized, distilled water and reagent grade ethanol were used for all of the runs. The solution pH was varied by the addition of reagent grade HCl and measured to an accuracy of 0.05 pH unit with a pH meter (Markson 90). The apparatus of FIG. 3 was modified to the extent that ADP crystal 8 was replaced by a KDP sum frequency generator to produce […] radiation which excited the sample. Filter 9 was either a 435 nm interference filter or a Corning 2-62 filter to isolate fluorescence from coumarin 102 and its cation, respectively.
The experimental runs were made to obtain measurements of the time history of both species under a variety of experimental conditions.

[9] = pH jump (more basic) by irradiation of coumarin 102 solution; format: physicochemical
Description: as §1, §2

[10] = reaction as drawn in the line of Table II
[11] = 1.0×10^-3 M in water, 266 nm, 20 psec pulse

For `O=c1c2ccccc2oc2ccccc12` [Xanthone], the triplet state lifetime [1] is given as “several to tens of milliseconds” and the “pK(S0)” value [2, 10] is given as -4.1.
In the case of `c1ccc2ccccc2c1` [Naphthalene], the “pK(S0)” value [2, 10] is listed as -4.0.
With `Oc1ccc2ccccc2c1` [2-Naphthol] the excited state lifetime [3] was ~ 6×10^-9 sec, the proton transfer time [3] was 2e-08 s and the “ability to produce pH change” value [3] was “cannot; also recorded: the amount of the change is substantially less than that which can be achieved with 2-naphthol-6-sulfonate”. The “pK(S0)” value [4] was 9.5.
In the case of `Nc1ccc2ccccc2c1` [2-Naphthylamine], the “pK(S0)” value [2, 10] is given as at least 14 and the “pK(S0)” value ([2]; second 2-Naphthylamine line, reaction drawing 7) is given as 4.1.
With `O=S(=O)(O)c1ccc2cc(O)ccc2c1` [2-Naphthol-6-Sulfonate] the “pK change upon excitation” value [5] was 7, the excited state lifetime [3] was 1e-08 s and the proton transfer time [3] was “less than 1×10^-9 sec”. For the same molecule, the “ability to produce pH change” value [3] was “can be used to produce large and very rapid pH modulation”, the “results with freshly prepared and day-old solutions” value ([6]; 1.0×10^-3 M in water) was “identical” and the “rate of excited state deprotonation/proton transfer, kf” value [6, 11] was “(1.02±0.3)×10^9 sec^-1”. The “rate of excited state protonation, kb” value [6, 11] was “(9.0±3)×10^10 l-mole^-1 -sec^-”, the “risetime (10-90%) of anion emission versus initial pH” value ([6]; 450±10 nm, initial pH varied) was “As the solution becomes more acidic, the risetime becomes more rapid” and the “pK(S0)” value [4] was 9.1. For the same molecule, the “excited state acid-base equilibrium” value [7] was “excited state acid-base equilibrium is achieved”, the excited state lifetime [7] was “about 10 nsec” and the “increase in H3O^+” value ([7]; 20 psec, 266 nm pulse, typically 30 μJ) was “more than 10^-4 M”. The proton transfer time ([7]; excited state) was “less than 1 nsec”.
For `c1ccc2c(c1)ccc1ccccc12` [Phenanthrene, reference compound], the “acidity/basicity in ground and excited state” value ([4]; ground state versus first excited singlet state) is given as “becomes less acidic (more basic) in the excited state” and the “pK(S0)” value [4] is given as -3.5.
For `c1ccc2c(c1)Cc1ccccc1-2` [Fluorene, reference compound], the “pK change upon excitation” value [5] was 29.
In the case of `Cc1cc(=O)oc2c3c4c(cc12)CCCN4CCC3` [coumarin 102], the “deprotonation during excited state lifetime” value ([8]; 1:1 H2O:ethanol) is reported as “very small”, the “excited state acid-base equilibrium” value ([8]; 1:1 H2O:ethanol) is reported as “excited state acid-base equilibrium is not achieved” and the excited state lifetime ([8]; 1.0×10^-3 M in 1:1 H2O:ethanol) is reported as 3.3±0.3 nsec. For the same molecule, the “excited state protonation rate constant kp” value ([8]; 1.0×10^-3 M in 1:1 H2O:ethanol, 355 μm (so in the source) excitation) was “(1.6 ±0.3)×10^10 l-mole^-1 -sec^-1”, the “quenching of excited states” value ([9]; concentrations near 10^-3 M) was “no evidence of quenching of excited states” and the “pH after pH jump” value ([9]; initial pH 4, 355 nm pulses >1 mJ) was 4.1.
For `c1ccc2nc3ccccc3cc2c1` [Acridine], the “pK(S0)” value [2, 10] is given as 5.5.
In the case of `c1ccc(N=Nc2ccccc2)cc1` [Azobenzene], the “pK(S0)” value [2, 10] is given as -2.90.
For `O=C(c1ccccc1)c1ccccc1` [benzophenone], the triplet state lifetime [1] is listed as “several to tens of milliseconds”.
